{
  "source": "patent US20260070903A1",
  "about": "“NOVEL PYRIDO[3,4-D]PYRIMIDIN-8-ONE DERIVATIVE HAVING PROTEIN KINASE INHIBITORY ACTIVITY, AND PHARMACEUTICAL COMPOSITION FOR PREVENTING, ALLEVIATING, OR TREATING CANCER, COMPRISING SAME” (KOREA INSTITUTE OF SCIENCE AND TECHNOLOGY, priority 2019, published 2026)",
  "key": {"[1]": {"target": "EPHA4 (Homo sapiens, UniProt P54764)", "test": "Kinase panel biochemical assay, EPHA4", "conditions": "single concentration of 1 μM, read-out: percent inhibition of kinase", "procedure": "(§1) As a test compound, Compound No. 55 was used. The percent inhibition of each kinase when treated with the test compound at a single concentration of 1 μM was measured, and the residual enzyme activity values (%) of the kinases were calculated. Kinases whose calculated residual enzyme activity values (%) was 30% or less (i.e., kinases inhibited by 70% or more) are as follows: […]"}, "[2]": {"target": "HCK (Homo sapiens, UniProt P08631)", "test": "Kinase panel biochemical assay, HCK", "conditions": "single concentration of 1 μM, read-out: percent inhibition of kinase", "procedure": "as §1"}, "[3]": {"target": "EPHB3 (Homo sapiens, UniProt P54753)", "sequence (P54753 34-998)": "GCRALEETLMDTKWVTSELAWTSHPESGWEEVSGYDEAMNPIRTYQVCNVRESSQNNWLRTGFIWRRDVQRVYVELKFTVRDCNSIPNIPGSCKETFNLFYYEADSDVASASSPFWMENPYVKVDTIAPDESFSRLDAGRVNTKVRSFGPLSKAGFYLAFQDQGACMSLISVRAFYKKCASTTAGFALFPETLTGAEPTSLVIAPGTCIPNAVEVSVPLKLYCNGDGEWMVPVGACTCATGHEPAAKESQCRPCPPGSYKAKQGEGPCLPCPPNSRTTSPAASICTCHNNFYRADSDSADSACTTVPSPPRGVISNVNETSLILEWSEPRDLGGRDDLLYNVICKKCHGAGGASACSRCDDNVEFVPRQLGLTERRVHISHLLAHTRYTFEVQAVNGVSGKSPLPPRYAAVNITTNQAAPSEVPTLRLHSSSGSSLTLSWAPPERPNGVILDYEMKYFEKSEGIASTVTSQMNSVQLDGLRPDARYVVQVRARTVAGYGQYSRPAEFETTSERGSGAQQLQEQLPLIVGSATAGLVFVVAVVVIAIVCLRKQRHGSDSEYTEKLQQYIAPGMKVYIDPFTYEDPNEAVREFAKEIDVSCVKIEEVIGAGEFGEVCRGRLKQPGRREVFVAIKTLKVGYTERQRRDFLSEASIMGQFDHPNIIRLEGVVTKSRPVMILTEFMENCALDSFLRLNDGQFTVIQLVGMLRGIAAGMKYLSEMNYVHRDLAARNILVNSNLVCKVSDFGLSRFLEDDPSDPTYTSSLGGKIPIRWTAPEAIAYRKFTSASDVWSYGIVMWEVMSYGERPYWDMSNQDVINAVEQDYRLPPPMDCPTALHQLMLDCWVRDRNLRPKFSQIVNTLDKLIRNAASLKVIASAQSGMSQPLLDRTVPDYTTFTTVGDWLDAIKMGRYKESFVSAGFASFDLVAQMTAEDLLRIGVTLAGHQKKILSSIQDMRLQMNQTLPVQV", "test": "Kinase panel biochemical assay, EPHB3", "conditions": "single concentration of 1 μM, read-out: percent inhibition of kinase", "procedure": "as §1"}, "[4]": {"system": "OCI-AML3 (N-Ras Q61L)", "test": "Proliferation inhibitory activity, OCI-AML3", "format": "cell-based, human", "conditions": "Homo sapiens, OCI-AML-3", "procedure": "The inhibitory activities of the compounds of the present disclosure against the proliferation of the mt-NRAS (G12D) Ba/F3 and OCI-AML3 (mt-NRAS) cell lines were measured and the GI50 values thereof were calculated."}, "[5]": {"target": "EPHA5 (Homo sapiens, UniProt P54756)", "test": "Kinase panel biochemical assay, EPHA5", "conditions": "single concentration of 1 μM, read-out: percent inhibition of kinase", "procedure": "as §1"}, "[6]": {"target": "EPHA1 (Homo sapiens, UniProt P21709)", "test": "Kinase panel biochemical assay, EPHA1", "conditions": "single concentration of 1 μM, read-out: percent inhibition of kinase", "procedure": "as §1"}, "[7]": {"target": "RET (Homo sapiens, UniProt P07949)", "sequence (P07949 29-1114)": "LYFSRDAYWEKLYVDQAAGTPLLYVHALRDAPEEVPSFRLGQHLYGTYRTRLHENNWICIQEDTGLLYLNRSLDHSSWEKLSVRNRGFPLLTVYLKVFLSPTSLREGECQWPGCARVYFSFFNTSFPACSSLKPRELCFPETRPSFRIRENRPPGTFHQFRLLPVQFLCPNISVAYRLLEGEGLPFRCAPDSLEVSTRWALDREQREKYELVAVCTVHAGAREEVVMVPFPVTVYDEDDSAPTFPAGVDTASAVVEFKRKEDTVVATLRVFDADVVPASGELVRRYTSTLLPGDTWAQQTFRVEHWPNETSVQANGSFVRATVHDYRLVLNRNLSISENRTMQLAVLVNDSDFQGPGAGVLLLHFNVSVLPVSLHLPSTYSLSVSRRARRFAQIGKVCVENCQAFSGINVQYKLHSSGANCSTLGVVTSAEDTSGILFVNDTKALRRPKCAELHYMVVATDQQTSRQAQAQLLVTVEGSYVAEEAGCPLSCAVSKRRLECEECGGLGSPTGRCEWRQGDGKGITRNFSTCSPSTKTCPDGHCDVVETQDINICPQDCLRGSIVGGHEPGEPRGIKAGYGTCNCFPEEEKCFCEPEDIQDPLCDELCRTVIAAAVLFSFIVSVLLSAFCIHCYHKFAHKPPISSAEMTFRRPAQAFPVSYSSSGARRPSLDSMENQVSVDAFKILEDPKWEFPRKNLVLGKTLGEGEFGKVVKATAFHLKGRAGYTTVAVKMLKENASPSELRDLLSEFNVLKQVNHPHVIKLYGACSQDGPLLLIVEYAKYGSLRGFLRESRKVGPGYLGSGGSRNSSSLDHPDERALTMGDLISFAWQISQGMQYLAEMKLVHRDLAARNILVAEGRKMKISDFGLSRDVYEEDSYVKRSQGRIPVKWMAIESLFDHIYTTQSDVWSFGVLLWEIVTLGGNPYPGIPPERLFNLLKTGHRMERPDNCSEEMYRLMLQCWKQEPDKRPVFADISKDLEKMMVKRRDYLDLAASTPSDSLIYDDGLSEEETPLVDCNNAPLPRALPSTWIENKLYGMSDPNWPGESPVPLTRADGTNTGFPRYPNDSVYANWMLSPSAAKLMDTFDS", "test": "Kinase panel biochemical assay, RET", "conditions": "single concentration of 1 μM, read-out: percent inhibition of kinase", "procedure": "as §1"}, "[8]": {"target": "ACK1 (Homo sapiens, UniProt Q07912)", "test": "Kinase panel biochemical assay, ACK1", "conditions": "single concentration of 1 μM, read-out: percent inhibition of kinase", "procedure": "as §1"}, "[9]": {"target": "LCK (Homo sapiens, UniProt P06239)", "test": "Kinase panel biochemical assay, LCK", "conditions": "single concentration of 1 μM, read-out: percent inhibition of kinase", "procedure": "as §1"}, "[10]": {"target": "RAF1 (Homo sapiens, UniProt P04049)", "test": "Kinase panel biochemical assay, RAF1", "conditions": "single concentration of 1 μM, read-out: percent inhibition of kinase", "procedure": "as §1"}, "[11]": {"target": "FYN (Homo sapiens, UniProt P06241)", "test": "Kinase panel biochemical assay, FYN", "conditions": "single concentration of 1 μM, read-out: percent inhibition of kinase", "procedure": "as §1"}, "[12]": {"target": "TYK2 (Homo sapiens, UniProt P29597)", "test": "Kinase panel biochemical assay, TYK2", "conditions": "single concentration of 1 μM, read-out: percent inhibition of kinase", "procedure": "as §1"}, "[13]": {"target": "EPHB4 (Homo sapiens, UniProt P54760)", "sequence (P54760 16-987)": "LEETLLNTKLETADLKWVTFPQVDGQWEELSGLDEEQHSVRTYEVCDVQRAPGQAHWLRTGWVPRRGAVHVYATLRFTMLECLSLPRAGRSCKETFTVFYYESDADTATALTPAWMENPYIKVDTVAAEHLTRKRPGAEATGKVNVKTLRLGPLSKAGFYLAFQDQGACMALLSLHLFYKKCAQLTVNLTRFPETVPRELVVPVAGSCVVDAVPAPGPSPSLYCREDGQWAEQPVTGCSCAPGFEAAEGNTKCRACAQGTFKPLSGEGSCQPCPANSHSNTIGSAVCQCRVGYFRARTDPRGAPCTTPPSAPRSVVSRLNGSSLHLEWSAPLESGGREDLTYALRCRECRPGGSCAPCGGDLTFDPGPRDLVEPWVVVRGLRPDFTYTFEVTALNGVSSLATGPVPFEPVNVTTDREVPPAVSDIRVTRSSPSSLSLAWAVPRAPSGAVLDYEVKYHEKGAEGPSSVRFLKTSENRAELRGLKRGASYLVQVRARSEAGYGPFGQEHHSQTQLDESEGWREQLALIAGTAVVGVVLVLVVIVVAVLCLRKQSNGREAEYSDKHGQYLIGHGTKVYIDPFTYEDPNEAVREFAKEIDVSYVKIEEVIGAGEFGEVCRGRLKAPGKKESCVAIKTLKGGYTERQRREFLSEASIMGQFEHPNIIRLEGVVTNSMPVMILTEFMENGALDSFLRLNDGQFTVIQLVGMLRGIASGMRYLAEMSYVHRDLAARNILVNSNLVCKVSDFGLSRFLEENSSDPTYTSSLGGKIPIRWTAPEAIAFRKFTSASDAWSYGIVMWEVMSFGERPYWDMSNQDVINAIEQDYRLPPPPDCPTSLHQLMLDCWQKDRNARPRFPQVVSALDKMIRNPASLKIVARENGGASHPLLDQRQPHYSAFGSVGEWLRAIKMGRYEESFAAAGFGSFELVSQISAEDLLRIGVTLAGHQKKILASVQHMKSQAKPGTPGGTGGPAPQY", "test": "Kinase panel biochemical assay, EPHB4", "conditions": "single concentration of 1 μM, read-out: percent inhibition of kinase", "procedure": "as §1"}, "[14]": {"target": "KDR (Homo sapiens, UniProt P35968)", "test": "Kinase panel biochemical assay, KDR", "conditions": "single concentration of 1 μM, read-out: percent inhibition of kinase", "procedure": "as §1"}, "[15]": {"target": "p38a (Homo sapiens, UniProt Q16539)", "sequence (Q16539 whole entry)": "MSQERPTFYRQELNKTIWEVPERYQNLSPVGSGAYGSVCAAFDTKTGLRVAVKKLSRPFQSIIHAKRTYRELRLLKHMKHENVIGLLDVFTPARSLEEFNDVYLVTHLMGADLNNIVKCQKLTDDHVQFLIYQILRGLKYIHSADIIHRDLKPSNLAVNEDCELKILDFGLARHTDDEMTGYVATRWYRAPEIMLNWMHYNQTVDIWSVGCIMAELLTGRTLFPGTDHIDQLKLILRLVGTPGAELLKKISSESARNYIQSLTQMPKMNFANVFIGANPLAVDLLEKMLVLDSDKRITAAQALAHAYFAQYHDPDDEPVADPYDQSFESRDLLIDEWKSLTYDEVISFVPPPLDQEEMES", "test": "Kinase panel biochemical assay, p38a", "conditions": "single concentration of 1 μM, read-out: percent inhibition of kinase", "procedure": "as §1"}, "[16]": {"target": "YSK4 (Homo sapiens, UniProt Q56UN5)", "test": "Kinase panel biochemical assay, YSK4", "conditions": "single concentration of 1 μM, read-out: percent inhibition of kinase", "procedure": "as §1"}, "[17]": {"target": "LYNB (Homo sapiens, UniProt P07948)", "test": "Kinase panel biochemical assay, LYNB", "conditions": "single concentration of 1 μM, read-out: percent inhibition of kinase", "procedure": "as §1"}, "[18]": {"target": "T1, GCK (Homo sapiens, UniProt Q12851)", "T1 sequence (Q12851 1-820)": "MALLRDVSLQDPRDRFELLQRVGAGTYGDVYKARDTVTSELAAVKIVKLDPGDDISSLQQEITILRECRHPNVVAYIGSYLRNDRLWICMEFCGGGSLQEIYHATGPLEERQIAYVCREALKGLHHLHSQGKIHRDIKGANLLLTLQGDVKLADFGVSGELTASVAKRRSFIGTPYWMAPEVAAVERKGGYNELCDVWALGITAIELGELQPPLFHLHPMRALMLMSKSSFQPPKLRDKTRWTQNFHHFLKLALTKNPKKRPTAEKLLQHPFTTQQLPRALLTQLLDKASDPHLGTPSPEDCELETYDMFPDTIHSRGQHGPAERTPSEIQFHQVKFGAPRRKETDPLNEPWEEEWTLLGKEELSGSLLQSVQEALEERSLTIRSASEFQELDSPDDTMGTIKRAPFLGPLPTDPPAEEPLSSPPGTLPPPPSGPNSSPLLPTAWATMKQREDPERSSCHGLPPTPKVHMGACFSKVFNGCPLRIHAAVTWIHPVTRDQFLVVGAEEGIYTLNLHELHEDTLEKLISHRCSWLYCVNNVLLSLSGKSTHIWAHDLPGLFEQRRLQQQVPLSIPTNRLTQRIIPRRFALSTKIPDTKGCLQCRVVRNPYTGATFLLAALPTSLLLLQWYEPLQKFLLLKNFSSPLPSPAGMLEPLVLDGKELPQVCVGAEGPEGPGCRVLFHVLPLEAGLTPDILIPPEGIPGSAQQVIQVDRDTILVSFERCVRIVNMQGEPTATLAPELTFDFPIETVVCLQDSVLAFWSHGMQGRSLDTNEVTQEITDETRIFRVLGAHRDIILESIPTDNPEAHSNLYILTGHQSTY", "test": "Inhibitory activity against GCK kinase (IC50)", "format": "biochemical", "procedure": "The inhibitory activities of the compounds of the present disclosure against two kinases, GCK and ACK1, were measured, and the IC50 values thereof were calculated."}, "[19]": {"target": "TXK (Homo sapiens, UniProt P42681)", "test": "Kinase panel biochemical assay, TXK", "conditions": "single concentration of 1 μM, read-out: percent inhibition of kinase", "procedure": "as §1"}, "[20]": {"target": "EPHB2 (Homo sapiens, UniProt P29323)", "test": "Kinase panel biochemical assay, EPHB2", "conditions": "single concentration of 1 μM, read-out: percent inhibition of kinase", "procedure": "as §1"}, "[21]": {"target": "EPHB1 (Homo sapiens, UniProt P54762)", "sequence (P54762 18-984)": "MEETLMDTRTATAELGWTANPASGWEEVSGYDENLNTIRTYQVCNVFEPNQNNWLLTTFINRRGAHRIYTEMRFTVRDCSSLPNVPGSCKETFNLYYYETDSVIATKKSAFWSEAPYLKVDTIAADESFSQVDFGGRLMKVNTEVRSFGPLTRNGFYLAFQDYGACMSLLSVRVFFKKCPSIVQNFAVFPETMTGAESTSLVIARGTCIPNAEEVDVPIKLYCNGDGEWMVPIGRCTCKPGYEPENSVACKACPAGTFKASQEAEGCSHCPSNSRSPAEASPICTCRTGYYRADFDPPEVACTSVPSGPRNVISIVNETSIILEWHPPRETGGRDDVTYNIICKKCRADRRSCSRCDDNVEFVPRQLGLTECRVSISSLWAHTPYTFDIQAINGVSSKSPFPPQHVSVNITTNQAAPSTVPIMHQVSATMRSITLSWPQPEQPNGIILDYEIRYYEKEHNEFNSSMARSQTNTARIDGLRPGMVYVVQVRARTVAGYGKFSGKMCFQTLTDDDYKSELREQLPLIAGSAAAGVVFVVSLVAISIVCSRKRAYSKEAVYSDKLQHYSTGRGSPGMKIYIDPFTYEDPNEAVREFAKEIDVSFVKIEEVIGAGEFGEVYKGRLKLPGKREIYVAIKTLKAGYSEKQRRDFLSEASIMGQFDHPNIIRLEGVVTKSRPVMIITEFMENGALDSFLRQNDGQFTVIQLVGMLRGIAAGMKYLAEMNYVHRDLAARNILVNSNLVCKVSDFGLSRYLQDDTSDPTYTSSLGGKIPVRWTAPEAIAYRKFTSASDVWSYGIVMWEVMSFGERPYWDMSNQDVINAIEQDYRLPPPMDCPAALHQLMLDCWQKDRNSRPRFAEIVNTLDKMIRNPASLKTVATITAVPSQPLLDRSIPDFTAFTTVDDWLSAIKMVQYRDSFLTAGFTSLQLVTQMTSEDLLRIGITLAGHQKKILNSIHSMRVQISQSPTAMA", "test": "Kinase panel biochemical assay, EPHB1", "conditions": "single concentration of 1 μM, read-out: percent inhibition of kinase", "procedure": "as §1"}, "[22]": {"target": "JAK1 (Homo sapiens, UniProt P23458)", "test": "Kinase panel biochemical assay, JAK1", "conditions": "single concentration of 1 μM, read-out: percent inhibition of kinase", "procedure": "as §1"}, "[23]": {"target": "FGFR1 (Homo sapiens, UniProt P11362)", "test": "Kinase panel biochemical assay, FGFR1", "conditions": "single concentration of 1 μM, read-out: percent inhibition of kinase", "procedure": "as §1"}, "[24]": {"target": "ARAF (Homo sapiens, UniProt P10398)", "sequence (P10398 whole entry)": "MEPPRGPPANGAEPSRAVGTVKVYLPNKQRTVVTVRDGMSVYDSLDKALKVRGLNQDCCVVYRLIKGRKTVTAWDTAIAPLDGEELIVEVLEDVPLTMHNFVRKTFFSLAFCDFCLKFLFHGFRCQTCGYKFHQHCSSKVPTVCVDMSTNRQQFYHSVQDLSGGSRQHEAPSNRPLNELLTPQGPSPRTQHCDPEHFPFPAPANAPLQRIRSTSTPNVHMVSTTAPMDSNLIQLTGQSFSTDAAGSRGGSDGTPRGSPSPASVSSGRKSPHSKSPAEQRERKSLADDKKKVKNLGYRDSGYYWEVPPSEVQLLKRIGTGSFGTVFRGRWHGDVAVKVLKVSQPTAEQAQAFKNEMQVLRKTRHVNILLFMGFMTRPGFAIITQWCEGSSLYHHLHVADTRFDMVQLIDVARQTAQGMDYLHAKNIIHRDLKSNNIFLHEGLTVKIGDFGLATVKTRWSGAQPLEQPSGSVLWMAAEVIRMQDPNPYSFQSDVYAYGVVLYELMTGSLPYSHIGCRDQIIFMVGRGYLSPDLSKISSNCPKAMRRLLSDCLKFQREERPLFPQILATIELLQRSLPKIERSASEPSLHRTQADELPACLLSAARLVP", "test": "Kinase panel biochemical assay, ARAF", "conditions": "single concentration of 1 μM, read-out: percent inhibition of kinase", "procedure": "as §1"}, "[25]": {"target": "FMS (Homo sapiens, UniProt P07333)", "test": "Kinase panel biochemical assay, FMS", "conditions": "single concentration of 1 μM, read-out: percent inhibition of kinase", "procedure": "as §1"}, "[26]": {"target": "BRK (Homo sapiens, UniProt Q13882)", "test": "Kinase panel biochemical assay, BRK", "conditions": "single concentration of 1 μM, read-out: percent inhibition of kinase", "procedure": "as §1"}, "[27]": {"target": "ZAK (Homo sapiens, UniProt Q9NYL2)", "test": "Kinase panel biochemical assay, ZAK", "conditions": "single concentration of 1 μM, read-out: percent inhibition of kinase", "procedure": "as §1"}, "[28]": {"target": "LYN (Homo sapiens, UniProt P07948)", "test": "Kinase panel biochemical assay, LYN", "conditions": "single concentration of 1 μM, read-out: percent inhibition of kinase", "procedure": "as §1"}},
  "data": [
    {"molecule": "Cc1ccc(NC(=O)c2cccc(C(F)(F)F)c2)cc1-c1cc2cnc(N)nc2c(=O)[nH]1", "note": "[Compound No. 55, N-(3-(2-amino-8-oxo-7,8-dihydropyrido[3,4-d]pyrimidin-6-yl)-4-methylphenyl)-3-(trifluoromethyl)benzamide]", "values": [
      {"measurement": "inhibition at 1 µM", "setting": "[1]", "result": "≥ 70", "unit": "%"},
      {"measurement": "inhibition at 1 µM", "setting": "[2]", "result": "≥ 70", "unit": "%"},
      {"measurement": "inhibition at 1 µM", "setting": "[3]", "result": "≥ 70", "unit": "%"},
      {"measurement": "GI50", "setting": "[4]", "result": "< 0.5", "unit": "µM"},
      {"measurement": "inhibition at 1 µM", "setting": "[5]", "result": "≥ 70", "unit": "%"},
      {"measurement": "inhibition at 1 µM", "setting": "[6]", "result": "≥ 70", "unit": "%"},
      {"measurement": "inhibition at 1 µM", "setting": "[7]", "result": "≥ 70", "unit": "%"},
      {"measurement": "inhibition at 1 µM", "setting": "[8]", "result": "≥ 70", "unit": "%"},
      {"measurement": "inhibition at 1 µM", "setting": "[9]", "result": "≥ 70", "unit": "%"},
      {"measurement": "inhibition at 1 µM", "setting": "[10]", "result": "≥ 70", "unit": "%"},
      {"measurement": "inhibition at 1 µM", "setting": "[11]", "result": "≥ 70", "unit": "%"},
      {"measurement": "inhibition at 1 µM", "setting": "[12]", "result": "≥ 70", "unit": "%"},
      {"measurement": "inhibition at 1 µM", "setting": "[13]", "result": "≥ 70", "unit": "%"},
      {"measurement": "inhibition at 1 µM", "setting": "[14]", "result": "≥ 70", "unit": "%"},
      {"measurement": "inhibition at 1 µM", "setting": "[15]", "result": "≥ 70", "unit": "%"},
      {"measurement": "inhibition at 1 µM", "setting": "[16]", "result": "≥ 70", "unit": "%"},
      {"measurement": "inhibition at 1 µM", "setting": "[17]", "result": "≥ 70", "unit": "%"},
      {"measurement": "IC50", "setting": "[18]", "result": "1000 to 10000", "unit": "nM"},
      {"measurement": "inhibition at 1 µM", "setting": "[19]", "result": "≥ 70", "unit": "%"},
      {"measurement": "inhibition at 1 µM", "setting": "[20]", "result": "≥ 70", "unit": "%"},
      {"measurement": "inhibition at 1 µM", "setting": "[21]", "result": "≥ 70", "unit": "%"},
      {"measurement": "inhibition at 1 µM", "setting": "[22]", "result": "≥ 70", "unit": "%"},
      {"measurement": "inhibition at 1 µM", "setting": "[23]", "result": "≥ 70", "unit": "%"},
      {"measurement": "inhibition at 1 µM", "setting": "[24]", "result": "≥ 70", "unit": "%"},
      {"measurement": "inhibition at 1 µM", "setting": "[25]", "result": "≥ 70", "unit": "%"},
      {"measurement": "inhibition at 1 µM", "setting": "[26]", "result": "≥ 70", "unit": "%"},
      {"measurement": "inhibition at 1 µM", "setting": "[27]", "result": "≥ 70", "unit": "%"},
      {"measurement": "inhibition at 1 µM", "setting": "[28]", "result": "≥ 70", "unit": "%"}
    ]}
  ]
}
